From article PMC10349142, “Minimal mechanistic component of HbYX-dependent proteasome activation that reverses impairment by neurodegenerative-associated oligomers” (Communications Biology, 2023)
Values belong to the molecule of their own block, whether it stands above or below them.

How the values were obtained:
[1] = molecular target: T1, Mammalian 20S proteasome (M20S); experiment: fluorogenic peptide hydrolysis, activator saturation curve; assay type: biochemical, Bos taurus
T1 construct: gene PSMA5; native 20S core particle purified from bovine liver; alpha7-beta7-beta7-alpha7; with Proteasome subunit beta type-1; Proteasome subunit beta type-2; Proteasome subunit beta type-3; Proteasome subunit beta type-4; Proteasome subunit beta type-5; Proteasome subunit beta type-6; Proteasome subunit beta type-7
Description: fluorogenic peptide hydrolysis, activator saturation curve on Mammalian 20S proteasome (M20S)

[2] = molecular target: T2, T. acidophilum 20S proteasome (T20S) (Thermoplasma acidophilum, UniProt P25156, DEL2-12); experiment: LFP nonapeptide hydrolysis; assay type: biochemical; conditions: 7 nM T20S; LFP substrate; pH 7.5; 45 °C; 2% DMSO
T2 construct: gene psmA; recombinant 20S core particle; 8xHis tag on C-terminus of beta subunit; with Proteasome subunit beta

[3] = molecular target: T3, T. acidophilum 20S proteasome (T20S) (Thermoplasma acidophilum, UniProt P25156, K66A); experiment: LFP nonapeptide hydrolysis; assay type: biochemical; conditions: 7 nM T20S; LFP substrate; pH 7.5; 45 °C; 2% DMSO
T3 construct: gene psmA; recombinant 20S core particle; 8xHis tag on C-terminus of beta subunit; with Proteasome subunit beta

[4] = molecular target: T1, Mammalian 20S proteasome (M20S); experiment: fluorogenic peptide hydrolysis, activator saturation curve (Hill fit); assay type: biochemical, Bos taurus; conditions: activation (gate opening); nLPnLD-AMC substrate; 0.5 nM 20S; pH 7.5; 37 °C; 2% DMSO; allosteric, alpha intersubunit pockets; read-out: Kobs
Description: fluorogenic peptide hydrolysis, activator saturation curve (Hill fit) on Mammalian 20S proteasome (M20S)

[5] = molecular target: T4, T. acidophilum 20S proteasome (T20S) (Thermoplasma acidophilum, UniProt P25156); experiment: LFP nonapeptide hydrolysis, dose response; assay type: biochemical; conditions: activation (gate opening); 7 nM T20S; LFP substrate; pH 7.5; 45 °C; 2% DMSO; allosteric, alpha intersubunit pockets
T4 construct: gene psmA; recombinant 20S core particle; 8xHis tag on C-terminus of beta subunit; with Proteasome subunit beta

[6] = activation; pH 7.5; 37 °C; 2% DMSO; site unknown; read-out: Kobs

T3 sequence (P25156 whole entry K66A): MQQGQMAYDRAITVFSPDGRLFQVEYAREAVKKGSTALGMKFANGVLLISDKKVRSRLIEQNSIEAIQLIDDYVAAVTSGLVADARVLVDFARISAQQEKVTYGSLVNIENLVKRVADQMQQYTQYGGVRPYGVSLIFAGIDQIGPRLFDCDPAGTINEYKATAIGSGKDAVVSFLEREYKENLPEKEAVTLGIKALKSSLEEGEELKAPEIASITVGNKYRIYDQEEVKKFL
T3 sequence (P28061 9-211, further chain): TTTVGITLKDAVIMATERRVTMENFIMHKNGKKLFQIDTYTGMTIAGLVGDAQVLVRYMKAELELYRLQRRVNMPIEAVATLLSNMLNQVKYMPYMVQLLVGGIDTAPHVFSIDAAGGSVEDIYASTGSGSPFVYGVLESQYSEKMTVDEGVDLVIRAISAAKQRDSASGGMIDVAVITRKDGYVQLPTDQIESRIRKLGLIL
T2 sequence (P25156 other isoform, or with tags, fused parts or gaps DEL2-12): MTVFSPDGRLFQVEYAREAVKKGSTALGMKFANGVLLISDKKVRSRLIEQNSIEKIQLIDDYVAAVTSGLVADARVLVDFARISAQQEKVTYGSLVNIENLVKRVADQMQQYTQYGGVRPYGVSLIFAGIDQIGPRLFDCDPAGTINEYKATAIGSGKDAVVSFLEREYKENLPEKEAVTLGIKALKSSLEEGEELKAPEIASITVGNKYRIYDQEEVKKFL
T2 sequence (P28061 9-211, stated change not applied, further chain): as the sequence (P28061 9-211, further chain) above
T4 sequence (P28061 9-211, stated change not applied): as the sequence (P28061 9-211, further chain) above
T4 sequence (P25156 whole entry, stated change not applied): as the sequence (P25156 whole entry K66A) above, with A66K counted along it

SMILES: CCCCC/C=C\C/C=C\C/C=C\C/C=C\CCCC(=O)Nc1ccc(O)cc1 [AM-404]
EC50 ([1]; read-out: Kobs; activation; pH 7.5; 37 °C; 2% DMSO; site unknown): 12.1 µM

EC50 [1, 6]: 2.7 µM
SMILES: O=C1NCN(c2ccccc2)C12CCN(CCCC(c1ccc(F)cc1)c1ccc(F)cc1)CC2 [Fluspirilene]

EC50 [1, 6]: 0.8 µM
SMILES: CCOC(=O)[C@]1(c2ccccc2)N=C(c2ccc(OC)cc2)N(Cc2ccccc2)[C@@H]1c1ccc(NCc2ccccc2)cc1 [TCH-165]

EC50 [4]: 970 µM
SMILES: C[C@H](NC(=O)[C@H](Cc1ccc(O)cc1)NC(=O)OCc1ccccc1)C(=O)O [ZYA]
no activation at 2.5 mM [2]: ZYA did not stimulate the activity of αΔN-T20S to any extent (Fig. 2e)
no activation at 2.5 mM [3]: it could not stimulate gate-opening in T20S-K66A to any extent (Fig. 2d)
affinity [5]: highly similar to its affinity for the T20S (Fig. 2b)
